Experimental data reported in paper PMC3199943, “Screening the MayBridge Rule of 3 Fragment Library for Compounds That Interact with the Trypanosoma brucei myo-Inositol-3-Phosphate Synthase and/or Show Trypanocidal Activity” (Molecular Biology International, 2011).
Like-named read-outs stand apart in the source and are kept apart here.

Tests used:
[1] = test system: HeLa cells; assay: cells; conditions: for viability at 500 µM: 65 h
Procedure, shortened: (§1)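 HeLa and A549 cells grown in DMEM with 10% FCS and 2 mM L-Glutamine were seeded at 2 × 10^4 cells/well. They were exposed to compounds for ~65 hours, then Alamar Blue was added for a further 5 hours to measure viability.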

[2] = test system: A549 cells; assay: Cytotoxicity against A549 cells, Alamar Blue; format: cell-based; conditions: for viability at 500 µM: Homo sapiens, A549, 65 h
Procedure, shortened: as §1

[3] = Homo sapiens, HeLa, read-out: HeLa Cells Alamar Blue
[4] = Supplementary Table 1, compound 0.5 mM, percentage of controls (n=1)
[5] = Homo sapiens, HeLa, read-out: HeLa Cells Alamar Blue, Supplementary Table 1, compound 0.5 mM, percentage of controls, mean ± SD (n=3) or SE (n=2)
[6] = Supplementary Table 1, compound 0.5 mM, percentage of controls, mean ± SD (n=3) or SE (n=2)

OCc1ccc(-c2ccccn2)cc1 [compound 490, (4‐pyrid‐2‐ylphenyl)methanol]
viability at 500 µM [1, 3]: 102 ± 13.5% | viability at 500 µM [2, 4]: 118%

OCc1ccc(-c2ccsc2)cc1 [compound 545, (4‐thien‐3‐ylphenyl)methanol]
viability at 500 µM [1, 3]: 84.3 ± 13.2% | viability at 500 µM [2, 4]: 87.2%

Cn1ccc2cc(N)ccc21 [compound 158, 1‐methyl‐1H‐indol‐5‐amine]
viability at 500 µM [1, 3]: 12.5 ± 9.1% | viability at 500 µM [2, 4]: 59.3%

Cc1cc(N)c(N)cc1Cl [compound 240, 4-chloro-5-methylbenzene-1,2-diamine]
viability at 500 µM [1, 3]: 12.1 ± 8.7% | CC50 ([1]; Homo sapiens, HeLa, read-out: HeLa ED50): 454 ± 55 µM | viability at 500 µM [2, 4]: 14.7%

CN(C)CCOc1ccc(C#N)cc1 [compound 542, 4‐[2‐(dimethylamino)ethoxy]benzonitrile]
viability at 500 µM [1, 3]: 91.6 ± 9.5% | viability at 500 µM [2, 4]: 69.7%

COC(=O)CSc1ccccc1 [compound 466, methyl 2‐(phenylthio)acetate]
viability at 500 µM [1, 3]: 102 ± 4.8% | viability at 500 µM [2, 4]: 84.7%

Cc1ccc2oc(=O)ccc2c1 [compound 265, 6‐methyl‐2H‐chromen‐2‐one]
viability at 500 µM [1, 3]: 95.8 ± 17.2% | viability at 500 µM [2, 4]: 63.8%

Nc1nc(-c2ccc(O)cc2)cs1 [compound 565, 4‐(2‐amino‐1,3‐thiazol‐4‐yl)phenol]
viability at 500 µM [1, 5]: 57.7 ± 17.7% | viability at 500 µM [2, 4]: 61.6%

NS(=O)(=O)c1ccc(F)cc1F [compound 576, 2,4‐difluorobenzenesulfonamide]
viability at 500 µM [1, 3]: 10.7 ± 9.3% | viability at 500 µM [2, 4]: 12.9%

CSc1ccc(Cl)cc1N [compound 382, 5‐chloro‐2‐(methylthio)aniline]
viability at 500 µM [1, 3]: 110 ± 13.3% | viability at 500 µM [2, 4]: 60.7%

COC(=O)c1ccccc1C#N [compound 274, methyl 2‐cyanobenzoate]
viability at 500 µM [1, 3]: 91 ± 19.6% | viability at 500 µM [2, 4]: 64%

COC(=O)C1Cc2ccccc2N1 (centres unmarked) [compound 422, methyl 2‐indolinecarboxylate]
viability at 500 µM [1, 3]: 11.1 ± 5.7% | viability at 500 µM [2, 4]: 40.1%

NC(=S)CSc1ccccc1 [compound 472, 2‐(phenylthio)ethanethioamide]
viability at 500 µM [1, 3]: 76.5 ± 11.2% | viability at 500 µM [2, 4]: 86%

Cc1cc(N)ccc1C(C)C.Cl [compound 497, 4‐isopropyl‐3‐methylaniline hydrochloride]
HeLa Cells Alamar Blue [1, 6]: 90.1 ± 2.1 percentage of controls | A549 Cells Alamar Blue [2, 4]: 115.7 percentage of controls

FC(F)(F)c1nc2ccccc2[nH]1 [compound 499, 2‐(trifluoromethyl)‐1H‐benzo[d]imidazole]
viability at 500 µM [1, 3]: 82 ± 14.1% | viability at 500 µM [2, 4]: 116%

Cc1ccccc1NC(N)=S [compound 326, N‐(2‐methylphenyl)thiourea]
viability at 500 µM [1, 5]: 111 ± 8.5% | viability at 500 µM [2, 4]: 125%

Cc1nc(-c2cccc(N)c2)cs1 [compound 546, 3‐(2‐methyl‐1,3‐thiazol‐4‐yl)aniline]
viability at 500 µM [1, 3]: 68.5 ± 8.2% | viability at 500 µM [2, 4]: 61.9%

Cc1ccc(-c2cnco2)cc1 [compound 259, 5‐(4‐methylphenyl)‐1,3‐oxazole]
viability at 500 µM [1, 3]: 88.4 ± 2.5% | viability at 500 µM [2, 4]: 88.1%

N#CN1CCCC1 [compound 3, pyrrolidine‐1‐carbonitrile]
viability at 500 µM [1, 3]: 88.5 ± 1.3% | viability at 500 µM [2, 4]: 115%

Oc1ccc(SC(F)(F)F)cc1 [compound 584, 4‐[(trifluoromethyl)thio]phenol]
viability at 500 µM [1, 3]: 97.5 ± 15.9% | viability at 500 µM [2, 4]: 68.4%

Nc1ccc(N2CCOCC2)cc1 [compound 435, 4‐morpholinoaniline]
viability at 500 µM [1, 3]: 10.2 ± 6.9% | viability at 500 µM [2, 4]: 33.5%

COC(=O)c1ccc(N)c(C)c1 [compound 304, methyl 4‐amino‐3‐methylbenzoate]
viability at 500 µM [1, 3]: 100 ± 8.9% | viability at 500 µM [2, 4]: 63.4%

CC(=O)c1ccc(-n2ccnc2)cc1 [compound 503, 1‐[4‐(1H‐imidazol‐1‐yl)phenyl]‐1‐ethanone]
HeLa Cells Alamar Blue [1, 6]: 69.7 ± 7.3 percentage of controls | A549 Cells Alamar Blue [2, 4]: 94.5 percentage of controls

CNCc1ccc(N2CCCCC2)cc1 [compound 657, N‐methyl‐N‐(4‐piperidin‐1‐ylbenzyl)amine]
viability at 500 µM [1, 3]: 40.9 ± 12% | viability at 500 µM [2, 4]: 77.4%

CC12CCC(O)(CC1)CC2=O [compound 222, 4‐hydroxy‐1‐methylbicyclo[2.2.2]octan‐2‐one]
HeLa Cells Alamar Blue [1, 6]: 101.8 ± 5.9 percentage of controls | A549 Cells Alamar Blue [2, 4]: 82.3 percentage of controls

Cc1cccc2cc[nH]c12 [compound 95, 7‐methyl‐1H‐indole]
viability at 500 µM [1, 3]: 11.9 ± 8.8% | viability at 500 µM [2, 4]: 13.4%

OCc1ccc2c(c1)OCO2 [compound 200, 1,3‐benzodioxol‐5‐ylmethanol]
viability at 500 µM [1, 3]: 85.2 ± 9.3% | viability at 500 µM [2, 4]: 92.1%

NC(=O)c1cccs1 [compound 80, thiophene‐2‐carboxamide]
viability at 500 µM [1, 3]: 106 ± 17.5% | viability at 500 µM [2, 4]: 90.3%

Nc1ccccc1N1CCCC1 [compound 289, 2‐pyrrolidin‐1‐ylaniline]
viability at 500 µM [1, 3]: 11.4 ± 9.5% | viability at 500 µM [2, 4]: 23.8%

O=C(O)c1ccc(C(F)(F)F)cc1 [compound 539, 4‐(trifluoromethyl)benzoic acid]
viability at 500 µM [1, 3]: 92.4 ± 8.2% | viability at 500 µM [2, 4]: 104%

OCc1ccc2ncccc2c1 [compound 255, 6‐quinolinylmethanol]
viability at 500 µM [1, 3]: 89.6 ± 6.8% | viability at 500 µM [2, 4]: 84%

Cn1ccnc1CO [compound 34, (1‐methyl‐1H‐imidazol‐2‐yl)methanol]
viability at 500 µM [1, 3]: 97 ± 14% | viability at 500 µM [2, 4]: 72.1%

OCc1nc2ccccc2s1 [compound 312, 1,3‐benzothiazol‐2‐ylmethanol]
viability at 500 µM [1, 3]: 80.7 ± 16.2% | viability at 500 µM [2, 4]: 64.4%

OCc1ccccc1-c1cccs1 [compound 543, (2‐thien‐2‐ylphenyl)methanol]
viability at 500 µM [1, 3]: 73.9 ± 3.7% | viability at 500 µM [2, 4]: 56.5%

OCCc1ccc2c(c1)OCO2 [compound 321, 2‐(1,3‐benzodioxol‐5‐yl)ethanol]
viability at 500 µM [1, 3]: 109 ± 5.9% | viability at 500 µM [2, 4]: 138%

OCc1cccc2c1OCCO2 [compound 322, 2,3‐dihydro‐1,4‐benzodioxin‐5‐ylmethanol]
HeLa Cells Alamar Blue [1, 6]: 100.4 ± 14.9 percentage of controls | A549 Cells Alamar Blue [2, 4]: 96.4 percentage of controls

N#CC(c1ccccc1)N1CCOCC1 (centres unmarked) [compound 638, 2‐morpholino‐2‐phenylacetonitrile]
viability at 500 µM [1, 3]: 80.5 ± 8.2% | viability at 500 µM [2, 4]: 89.8%

O=C(O)CC12CC3CC(CC(C3)C1)C2 [compound 588, 2‐(1‐adamantyl)acetic acid]
viability at 500 µM [1, 3]: 95.4 ± 14.1% | viability at 500 µM [2, 4]: 85.4%

CCCCCSc1nnc[nH]1 [compound 357, 3‐(pentylthio)‐4H‐1,2,4‐triazole]
viability at 500 µM [1, 3]: 64.5 ± 8.6% | viability at 500 µM [2, 4]: 45.3%

NC(=O)c1ccccc1N1CCCCC1 [compound 651, 2‐piperidinobenzamide]
viability at 500 µM [1, 3]: 82.4 ± 5.4% | viability at 500 µM [2, 4]: 93.1%

Clc1ccsc1 [compound 48, 3‐chlorothiophene]
viability at 500 µM [1, 3]: 95.5 ± 2% | viability at 500 µM [2, 4]: 101%

OCc1ccc(CN2CCCCC2)cc1 [compound 669, [4‐(piperidin‐1‐ylmethyl)phenyl]methanol]
viability at 500 µM [1, 3]: 93.2 ± 12.6% | viability at 500 µM [2, 4]: 121%

Cl.Cl.NCCc1c[nH]cn1 [compound 475, 2‐(1H‐imidazol‐4‐yl)ethylamine dihydrochloride]
HeLa Cells Alamar Blue [1]: 95.9 ± 6.6 | A549 Cells Alamar Blue [2]: 80.3

Nc1nc(-c2ccccc2)ns1 [compound 423, 3‐phenyl‐1,2,4‐thiadiazol‐5‐amine]
viability at 500 µM [1, 3]: 82.7 ± 3.9% | viability at 500 µM [2, 4]: 52.7%

NC(=O)NCc1ccc(F)cc1 [compound 334, N‐(4‐fluorobenzyl)urea]
viability at 500 µM [1, 3]: 112 ± 4.7% | viability at 500 µM [2, 4]: 91.8%

O=C(C1CCNCC1)N1CCCC1 [compound 469, 4‐piperidinyl(1‐pyrrolidinyl)methanone]
viability at 500 µM [1, 3]: 99.5 ± 8.7% | viability at 500 µM [2, 4]: 86.1%

Nc1ccc(Cn2ccnc2)cc1 [compound 375, 4‐(1H‐imidazol‐1‐ylmethyl)aniline]
viability at 500 µM [1, 3]: 88 ± 18.8% | viability at 500 µM [2, 4]: 90.7%

NC(=O)Cc1ccc(F)cc1Cl [compound 519, 2‐(2‐chloro‐4‐fluorophenyl)acetamide]
viability at 500 µM [1, 3]: 98.3 ± 15.4% | viability at 500 µM [2, 4]: 102%

OCc1scc2c1OCCO2 [compound 361, 2,3‐dihydrothieno[3,4‐b][1,4]dioxin‐5‐ylmethanol]
HeLa Cells Alamar Blue [1, 6]: 68.5 ± 12.9 percentage of controls | A549 Cells Alamar Blue [2, 4]: 93.7 percentage of controls

NCc1cccc(F)c1 [compound 70, 3‐fluorobenzylamine]
viability at 500 µM [1, 3]: 104 ± 17.4% | viability at 500 µM [2, 4]: 104%
